Measurements taken from a melting point compilation (Tetko et al.; mined from patent text by program, amines drawn as free bases though some values may be those of a salt).

Row | melting point [°C] | Structure (SMILES)
1 | 237 to 238 | CCOc1cc2c(c3c1OC(C)(C)C3)C(c1cccc(N3C(=O)NC(C)(C)C3=O)c1)=NC(C)(C)C2
2 | 114 to 115 | COc1ccc(C2(C(C)(C)O)CCN(C)CC2)cc1
3 | 109 to 110 | CC(=O)Nc1ccc(C(C)(C)C)cc1OC(C)=O
4 | 234 to 237 | C=Cc1cc(C(F)(F)F)ccc1-c1cc(Oc2cccc3sc(NC(C)=O)nc23)ncn1
5 | 105 to 107 | CC1CCc2ccc(CC(=O)O)cc2C(=O)C1 (stereo unspecified)
6 | > 300 | CC(C)(C)NC(=O)Nc1ccc(-c2c[nH]c(=O)cn2)cc1
7 | 134 to 135 | COc1ccc(CNc2nc(C)c(-c3ccncc3)s2)cc1OC
8 | 101 to 103 | CC(C)(C)OCCCNC(=O)c1nn(C2CCCCO2)cc1NC(=O)c1ccccn1 (stereo unspecified)
9 | 154 | Cc1cc(OCc2cnc(-c3ccc(OC(F)(F)F)cc3)nc2C(F)(F)F)ccc1OC(C)(C)C(=O)O
10 | 85 to 90 | CC(=O)c1ccc2c(c1)C=CC(=CCl)CO2
11 | 95 to 97 | CN(C)c1ccc(S(=O)CCCCCC(=O)NO)cc1 (stereo unspecified)
12 | 174 to 175 | COc1ccccc1-n1nnc2cc(F)c(NC(C)=O)cc21
13 | 136 to 137 | C#CCCOc1cc(NC(=O)CC(CC(=O)O)C(F)(F)F)c(F)cc1Cl (stereo unspecified)
14 | 138 to 141 | Cc1cc(I)ccc1-c1cccc(C(N)=O)c1
15 | 177 to 178 | Cc1c(C(=O)Nc2ccc(OCC(C)C)c(C#N)c2)cnn1-c1ccc(F)cc1
16 | 175 to 178 | Cc1nc2cccc(OCC(C)(C)NC(=O)CC3CCOCC3)c2c(N)c1C(=O)O
17 | 188 | CC(=O)N(O)CC1=C(n2ccccc2=O)c2cc(C(F)(F)F)ccc2OC1(C)C
18 | 126 | COC(=O)c1ccnc2ccc(C(=O)c3ccc(Cl)cc3)cc12
19 | 119 to 138 | CC(=O)OCC(=O)Nc1nc2c(Oc3cc(-c4ccc(C(F)(F)F)cc4)ncn3)cccc2s1
20 | 108 to 110 | COC(=O)c1c(CC(C)C)nc2ccc(Br)cc2c1-c1ccccc1
21 | 80 to 83 | CC(C)(C)OC(=O)[C@@H]1CC[C@H](CC(=O)N[C@@H](Cc2ccc(OCc3c(Cl)cccc3Cl)cc2)C(=O)O)N1Cc1ccccc1
22 | 107 to 109 | Cc1c(C)c2c(c(C)c1O)CCC(C)(C(=O)Nc1ccccc1)O2 (stereo unspecified)
23 | 216 to 218 | CN(C)c1ccc(CC(=O)Nc2cc(CC3SC(=O)NC3=O)ccc2O)cc1 (stereo unspecified)

The remaining lines, values behind:

Row | Structure (SMILES) | melting point [°C]
24 | Fc1ccc(OC2CCN(CCc3c[nH]c4ccc(OCc5ccccc5)cc34)CC2)cc1 | 134 to 136
25 | Cc1cnc2ccc3c(c2c1)OC(CN1CC=C(c2c[nH]c4ccccc24)CC1)CO3 (stereo unspecified) | 211 to 213
26 | Cc1cccc(C)c1NCc1nnc(S)n1C | 172 to 173
27 | Cc1c(C)c2c(c(C)c1O)CCC(C)(C#Cc1cccs1)O2 (stereo unspecified) | 133 to 135
28 | Nc1ncnc2c1ncn2OCC(O)COCP(=O)(O)O (stereo unspecified) | 218 to 221
29 | Cc1nccn1-c1nc(-c2ccc(Cl)cc2)c(CCCN2C(=O)CNC2=O)o1 | 197 to 198
30 | CN(C)C(=O)c1nc(-c2ccccc2)nc2c1c1ccccc1n2C | 193 to 195
31 | CN1CC(CNN)CC2c3cccc4[nH]cc(c34)CC21 (stereo unspecified) | 171 to 172
32 | CC1(C)OC(=O)Nc2ccc(-c3ccc(C#N)[nH]3)cc21 | 241 to 242
33 | CCOC(=O)c1c(N2CCN(C(=O)c3cccs3)CC2)c2cccnc2n(Cc2ccccc2)c1=O | 168
34 | CCC(N)(P(=O)(O)O)P(=O)(O)O | 282
35 | O=C(N[C@H]1CC[C@H](CCN2CCN(c3nccc4c3CCO4)CC2)CC1)c1ccc(C(F)(F)F)cc1 | 227
36 | COc1cc(C=O)ccn1 | 33 to 35
37 | CC(Oc1ccnc2cc(Cl)ccc12)c1ccccc1F (stereo unspecified) | 53 to 54
38 | C[C@]1(COc2ccc(N3CCC(Nc4ccc(Cl)c(Cl)c4)CC3)cc2)Cn2cc([N+](=O)[O-])nc2O1 | 146 to 147
39 | CC(Nc1nc(N)nc(C(F)(F)F)n1)c1ccc(Cl)cc1 (stereo unspecified) | 99
40 | Cc1ccccc1C1C(C#N)=C(c2ccccc2)Nc2n[nH]cc21 (stereo unspecified) | 246
41 | Cn1c(-c2ccc(-c3ccccn3)cc2)c(C(=O)N2CCC(OCC(=O)O)CC2)c(=O)n1-c1ccc(C#N)cc1 | 156 to 159
42 | O=S(Cc1cc(OCc2ccc(C(F)(F)F)cc2)ccn1)c1nc2cscc2[nH]1 (stereo unspecified) | 149
43 | Cn1c(Cl)c([N+](=O)[O-])c(=O)n(C)c1=O | 91 to 92
44 | COc1cc(OCC2CCCCC2)ccc1/C=C/c1cc(/C=C/c2ccc3cc[nH]c3c2)[nH]n1 | 104 to 108
45 | CC1=C2CCC3C(CCC4(C)C3CCC4(C)O)C2(C)CC(=CO)C1=O (stereo unspecified) | 182 to 188
46 | Cc1cc(NS(=O)(=O)c2n[nH]c(NC=O)n2)ccc1Br | 282 to 284
47 | O=[N+]([O-])c1ccc(Cn2c(-c3ccc4c(c3)OCO4)nc3ccccc32)cc1 | 172 to 174

Row | Structure (SMILES) | melting point [°C]
48 | Cc1cccc(NC(=O)CN2CCN(c3ccccn3)CC2)c1 | 126 to 127
49 | N#Cc1nc(-c2nn(-c3c(Cl)cc(C(F)(F)F)cc3Cl)nc2Cl)[nH]c1C#N | 206 to 208
50 | C=CCOc1ccccc1OCC(O)CNCCOc1ccc(O)c(C(N)=O)c1 (stereo unspecified) | 147 to 148
51 | FC(F)(F)c1cc(CNCc2cc3ccccc3nc2N2CCN(CC3CCCCC3)CC2)cc(C(F)(F)F)c1 | 54 to 55
52 | O=c1[nH]c2cc(Cl)cc(Cl)c2c(O)c1Sc1ccccc1Br | 285 to 288
53 | O=C(O)c1ccc(C#Cc2ccccc2)cc1 | 224 to 225
54 | Cc1cccc(N2CCNC2=O)c1 | 137 to 138
55 | C[C@@H](NC(=O)C1(C)CC(F)(F)C1)c1ccc(Br)cc1 | 120 to 122
56 | CCOC(=O)c1cn(C2CC2)c2c(F)c(C(C#N)C(=O)OCC)c(F)c(F)c2c1=O (stereo unspecified) | 98 to 100
57 | CNC(=O)CN1CCc2cc(Nc3ncc(Cl)c(Nc4cc(Cl)ccc4OC)n3)c(OC)cc2CC1 | 127 to 136
58 | CCCOc1ccccc1-c1nc2nc(N(CCC)CCC)ncc2c(=O)[nH]1 | 123 to 124
59 | CCNc1nc(OC)c(C(=O)NCCN(CC)CC)nc1Cl | 142
60 | O=c1[nH]c2ccc3ccccc3c2n(CCc2ccccc2)c1=O | 268
61 | Cc1nn(C)c2nc(N)[nH]c(=O)c12 | > 300
62 | Cc1cn2c(c1C(=O)OC(C)C)SCC2CC(N)=O (stereo unspecified) | 143 to 146
63 | CCCOc1ccccc1-c1nc2nc(NCCOC)ncc2c(=O)[nH]1 | 193 to 194
64 | COC1(c2cc(O)cc(F)c2)CCOC1 (stereo unspecified) | 136 to 137
65 | N#Cc1ccc(OCC(O)CN2CC3CC(C2)CN(C(=O)OCCCl)C3)cc1 (stereo unspecified) | 104 to 105
66 | O=C(NCC1CC2CCC1C2)n1cc(F)c(=O)[nH]c1=O (stereo unspecified) | 165 to 166
67 | COc1ccc(COCc2nc(C(C)C)c(Sc3cc(Cl)cc(Cl)c3)[nH]2)cc1 | 96 to 97
68 | CCOC(=O)N1CCc2[nH]cc3c(=O)n(-c4ccc(Cl)cc4)nc-3c2C1 | 357 to 359
69 | Cn1c(=Nc2nc(C(Cl)(Cl)Cl)nc(C(Cl)(Cl)Cl)n2)sc2ccccc21 | 251 to 253
70 | CN(Cc1cccc2c1C(=O)N(C1CCC(=O)NC1=O)C2=O)C(=O)Nc1ccccc1 (stereo unspecified) | 226 to 228
71 | CC(=NNc1ccc(C2=NNC(=O)CC2C)cc1)c1ccc(O)cc1O (stereo unspecified) | 259 to 261
